From patent US10179770B2, “Quinolines derivatives as novel anticancer agents” (GENOSCIENCE PHARMA, priority 2013, dated 2019) come the findings set out here.

The structures appear in SMILES notation. Where only a bound is given, the exact number is not on record here.

In one test the test system is HL60. Put plainly: CellTiter-Glo cell viability assay (example 57). The test is classed as cell-based. To be noted: Homo sapiens, HL-60; HL60 (Leukemia); Cell Titer-Glo; 72 h. The protocol: (§1) The human breast cancer cell line SkBr3 and the human metastatic prostate carcinoma cell line LnCAP were cultured in Dulbecco's modified Eagle's medium (DMEM) supplemented with 10% fetal bovine serum (FBS) and 0.1% sodium pyruvate. The human myelocytic cell line U937 and NB4 were maintained in RPMI medium 1640 1× (Gibco 21875-034) supplemented with 10 % Fetal Bovine Serum (FBS, Eurobio S39130-0808) Kasumi and SKM-1 were maintained in RPMI medium 1640 1× (Gibco 21875-034) supplemented with 20 % Fetal Bovine Serum (FBS, Eurobio S39130-0808), HL60 was maintained in Iscove's modified Dulbecco's medium 1× (IMDM, Gibco 21890) supplemented with 20% Fetal Bovine Serum (FBS, Eurobio S39130-0808), cell line was maintained in MEM alpha medium (Gibco 22561-021) supplemented with 10% FBS at 37° C. with 5% CO2. Cell outgrowth was measured using the CellTiter-Glo luminescent cell viability assay as described by the manufacturer (Promega, Ref G7571 Madison, Wis., USA) using a FLUOstar optima luminometer (BMG Labtech, Ortenberg, Germany).
(§2) Briefly, for adherent cells, 10^4 cells were plated onto 96-well plates (white with clear bottom (3610, Corning Costar) in 100 μL of media per well and were allowed to grow overnight before the assay. For cells growing in suspension, 10^4 cells were plated onto 96-well plates immediately before the assay. […] Vehicle (DMSO) was used as a control, and all compounds were tested in a constant percentage of DMSO (1%). After addition of 50 μL of CellTiter GLO, luminescence was measured using a Centro luminometer (Berthold). EC50 values were determined as the dose of compound required to reduce luminescent values to 50% of the signal obtained for untreated cell cultures. All experiments were done in duplicate and repeated two independent times.
A general note: Cellular ATP, detected with luciferase, serves as a proxy for viable cell number.

The subject of a further test is Kasumi-1. Put plainly: CellTiter-Glo cell viability assay (example 57). To be noted: Homo sapiens; Kasumi-1 (Leukemia); Cell Titer-Glo; 72 h. The test is classed as cell-based. The protocol: as §1, §2
The subject of the next test is LNCaP. In words: CellTiter-Glo cell viability assay (example 57). As to conditions: Homo sapiens; LNCaP (Prostate); Cell Titer-Glo; 72 h. In kind it is cell-based. The protocol: as §1, §2
A further test concerns NB4. Put plainly: CellTiter-Glo cell viability assay (example 57). In kind it is cell-based. To be noted: Homo sapiens, NB-4; NB4 (Leukemia); Cell Titer-Glo; 72 h. The protocol: as §1, §2
For another test, the system named is SKM-1. In words: CellTiter-Glo cell viability assay (example 57). In kind it is cell-based. As to conditions: Homo sapiens; SKM-1 (Leukemia); Cell Titer-Glo; 72 h. The protocol:
as §1, §2

A further test has as its system SkBr3. In words: CellTiter-Glo cell viability assay (example 57). In kind it is cell-based. To be noted: Homo sapiens, SK-BR-3; SkBr3 (Breast); Cell Titer-Glo; 72 h. The protocol:
as §1, §2

The subject of the next test is U937. Put plainly: CellTiter-Glo cell viability assay (example 57). The test is classed as cell-based. As to conditions: Homo sapiens, U-937; U937 (Leukemia); Cell Titer-Glo; 72 h. The protocol: as §1, §2
In another test the test system is HT29 cells. Put plainly: Combination study with standard chemotherapy agents, Combination Index (Chou and Talalay). In kind it is cell-based, human. To be noted: preliminary results. The protocol: Anticancer drugs were tested around their EC50 in […] cell line, The general assay procedure is the same as described in example 53 for compound XIX-3. Loewe additivity model: The experimental data are analyzed by using CalcuSyn (Biosoft, Stapleford, UK), a computer program based on the method of Chou and Talalay. Briefly, the dose-effect curves for each drug or drug combination were converted to median-effect plots with CalcuSyn. Then, a combination index (CI) value for each experimental combination was calculated on the basis of the following equation: [formula] Where for n=2 (combination of 2 compounds): D1 and D2 are the doses of drug 1 and drug 2 that have x effect when each drug is used alone d1 and d2 are the doses of drug 1 and drug 2 that have the same x effect when they are used in combination. [table] [table]

The test system of another test is A375 cell line. Put plainly: Combination of XIX-3 and Zelboraf, Bliss independence model. The test is classed as cell-based, human. To be noted: XIX-3 associated with Zelboraf, 72 h. The protocol: The human melanoma cell lines A375 cultured in Dulbecco's modified Eagle's medium supplemented with 10% Fetal Bovine Serum and 1% Penicillin-Streptomycin and maintained at 37° C. with 5% CO2.
A375 cells were plated at 800 cells per well onto 96-well plates in 90 μL of media per well and were allowed to grow overnight before the assay. XIX-3 and Zelboraf, a compound used for treatment for BRAF V600E mutation-positive metastatic melanoma, were added at different concentrations (combinations of five concentrations of XIX-3 and six concentrations of Zelboraf) to each well, and cell cultures were incubated for 72 h. Vehicle (H2O) was used as a control, and all compounds were tested in a constant percentage of vehicle. Cell outgrowth was measured using a […] Aqueous One Solution Cell Proliferation Assay (Promega) and a TECAN Sunrise plate reader. […] The effects of drug-drug combinations are evaluated in the Bliss independence model (Prichard M. N. and Shipman C. Jr. Antivir. Res. 1990 (14) 181-205; Prichard, M. L. et al. Antimicrob Agents Chemother 1993 (37) 540-545). The theoretical additive effect is calculated from the dose-response curves of individual compounds by the equation: Z=X+Y(1−X) (7) Where: • Z represents the total inhibition produced by the combination of drugs X and Y. • X and Y represent the inhibition produced by drugs X and Y alone, respectively. […]

`CCN(CC)C1CCN(C(C)c2cc(-c3ccccc3)nc3ccccc23)CC1.Cl.Cl` (stereo not shown) [XIX-3, 2-phenyl-4-{1-[4-(N,N-diethylamino)piperidin-1-yl]-eth-1-yl}quinoline dihydrochloride]: the EC50 in the test with HL60 was 40 µM; in the test with Kasumi-1, 30 µM; in the test on LNCaP, 25 µM; with NB4, 37 µM; in the test with SKM-1, 30 µM; in the test with SkBr3 it was 20 µM. The same molecule displayed an EC50 in the test on U937 of 35 µM. The “Combination effect with standard chemotherapy agents” value with HT29 cells (HT29 cells) was “Synergy Effect”. Further, the “Combination Index (CI)” value with HT29 cells (XIX-3 at 18 μM in combination with well described anticancer drugs, HT-29) is under 1. The “Combination effect on cell viability (Bliss independence model)” value with A375 cell line is reported as “additive effect (between −20% to +20% indicates additive effect)”.

Broadly, the EC50 is the concentration giving half of the maximal effect. Low values mean an effect from little substance, high ones a need for much substance.
